The structures appear in SMILES notation. Where two headings read alike, the source gives them in different places.

Consider 3 molecules from paper PMC10821035, “Silver and Copper Complexes with Ibuprofen and Caffeine—Preparation and Evaluation of Their Selected Biological Effects” (Molecules, 2024).

For experiment [1], the system named is all tested bacterial strains. The experiment can be described thus: MIC by broth microdilution, all tested bacterial strains. Type of experiment: cell-based. As to the method: (§1) The bacterial strains Bacillus subtilis ATCC 6637, Bacteroides fragilis ATCC 25285, Clostridium bifermentans ATCC 638, Escherichia coli ATCC 35218, Enterococcus faecalis ATCC 29212, Pseudomonas aeruginosa ATCC 27853, Staphylococcus aureus ATCC 6538, Staphylococcus aureus ATCC 25923, Staphylococcus aureus ATCC 29213, Staphylococcus aureus ATCC 43300, and Staphylococcus epidermidis ATCC 12228 were cultured in Mueller–Hinton medium (Oxoid, Basingstoke, UK) at 37 °C for 24 h.
(§2) The minimal inhibitory concentration (MIC) was determined by the broth microdilution method according to the standards of the Clinical and Laboratory Standards Institute (CLSI) manuals in 96-well plates. All stock solutions of the investigated complexes were prepared in DMSO with concentrations of 2 mg mL^−1.
(§3) The MIC was estimated as the lowest concentration of the complex inhibiting bacterial growth. As negative controls, samples without inoculum at each complex concentration were used, whereas the positive control contained the inoculum but not the investigated complexes. Each complex was tested at concentrations between 2.5 and 160 µg mL^−1. The first well contained the highest concentration, and further concentrations were achieved by serial dilution. The assay was performed in duplicate with three repetitions for each bacterial strain.
A general note: Dilution methods test growth across graded concentrations, often in twofold steps.

For a further experiment, the system named is CCD-18Co cells. The experiment can be described thus: XTT cytotoxicity/proliferation assay on CCD-18Co fibroblasts. Type of experiment: cell-based, human. The following applies: 24 h incubation, XTT test. Here is the method:
The cell line CCD-18Co (fibroblasts from the colon of a healthy human) was obtained from the American Type Cells Collections (Cat. No. ATCC-CRL-1459). The cells were cultured in Minimum Essential Medium Eagle (MEM) with Earle’s salts, L-glutamine, sodium bicarbonate, and phenol red, supplemented with 10% fetal bovine serum (FBS), 1% non-essential amino acids (NEAAs), and 1% penicillin/streptomycin solution (P/S), all purchased from Sigma-Aldrich (St. Louis, MO, USA). The incubation parameters were 37 ℃, 5% CO2, and 95% relative humidity. The cytotoxicity of the tested complexes (Ag-IBU, Ag-IBU-CAF, Cu-IBU, and Cu-IBU-CAF) was derived using two distinct parameters: (1) tetrazolium salt (XTT) reduction by mitochondrial succinate dehydrogenases using an XTT (Tetrazolium hydroxide) Kit; and (2) neutral red (NR) dye uptake and incorporation within lysosomes using an NR (Neutral Red) Kit. Both kits were produced by Xenometrix AG, Allschwil, Switzerland. The assays were carried out without any substantial changes to the test procedures provided by the manufacturer. The stock solutions of the tested compounds at 20 mg mL^−1 were prepared in DMSO. […] The cells were incubated for the next 3 h, gently mixed, and the absorbance was read at 480 nm with a reference wavelength of 690 nm using the multi-mode plate reader FLUOstar Omega (BMG Labtech, Ortenberg, Germany). […]

Experiment [2] has as its system Staphylococcus aureus ATCC 6538. The experiment can be described thus: Disc diffusion test (Kirby–Bauer). Type of experiment: cell-based. The following applies: concentration according to MIC, 6 mm filter discs. As to the method: as §1
(§4) The antimicrobial sensibility assay was performed according to the Kirby–Bauer method using 6 mm filter discs. Mueller–Hinton agar (Oxoid) was poured onto Petri dishes (90 mm), and saturated filter discs at the concentration determined as the MIC were placed onto the agar surface after distributing bacteria on the agar. The Petri dishes were incubated at 37 °C for 24 h.
In general terms: A growth-free zone around the sample is the usual read-out of agar diffusion tests.

Experiment [3] concerns Escherichia coli ATCC 25218. The experiment can be described thus: Disc diffusion test (Kirby–Bauer). The following applies: concentration according to MIC, 6 mm filter discs. Type of experiment: cell-based. As to the method:
as §1, §4

Experiment [4] has as its system Staphylococcus aureus ATCC 25923. The experiment can be described thus: Disc diffusion test (Kirby–Bauer). Format: cell-based. The following applies: concentration according to MIC, 6 mm filter discs. As to the method: as §1, §4
Experiment [5] has as its system Bacteroides fragilis ATCC 25285. The experiment can be described thus: Disc diffusion test (Kirby–Bauer). Format: cell-based. The following applies: concentration according to MIC, 6 mm filter discs. As to the method:
as §1, §4

For experiment [6], the system named is Pseudomonas aeruginosa ATCC 27853. The experiment can be described thus: Disc diffusion test (Kirby–Bauer). Type of experiment: cell-based. The following applies: concentration according to MIC, 6 mm filter discs. As to the method:
as §1, §4

In experiment [7] the test system is Enterococcus faecalis ATCC 29212. The experiment can be described thus: Disc diffusion test (Kirby–Bauer). Type of experiment: cell-based. The following applies: concentration according to MIC, 6 mm filter discs. Here is the method: as §1, §4
Experiment [8] relates to Staphylococcus aureus ATCC 29213. The experiment can be described thus: Disc diffusion test (Kirby–Bauer). The following applies: concentration according to MIC, 6 mm filter discs. Type of experiment: cell-based. Here is the method: as §1, §4
The subject of experiment [9] is Staphylococcus epidermidis ATCC 12228. The experiment can be described thus: Disc diffusion test (Kirby–Bauer). Type of experiment: cell-based. The following applies: concentration according to MIC, 6 mm filter discs. As to the method: as §1, §4
In experiment [10] the test system is Staphylococcus aureus ATCC 43300. The experiment can be described thus: Disc diffusion test (Kirby–Bauer). Type of experiment: cell-based. The following applies: concentration according to MIC, 6 mm filter discs. Here is the method:
as §1, §4

Experiment [11] has as its system Bacillus subtilis ATCC 6637. The experiment can be described thus: Disc diffusion test (Kirby–Bauer). Type of experiment: cell-based. The following applies: concentration according to MIC, 6 mm filter discs. Here is the method: as §1, §4
The subject of experiment [12] is Staphylococcus aureus ATCC 6538. The experiment can be described thus: MIC by broth microdilution. Type of experiment: cell-based. As to the method:
as §1, §2, §3

The test system of experiment [13] is Escherichia coli ATCC 25218. The experiment can be described thus: MIC by broth microdilution. Format: cell-based. As to the method: as §1, §2, §3
The subject of experiment [14] is Staphylococcus aureus ATCC 25923. The experiment can be described thus: MIC by broth microdilution. Type of experiment: cell-based. Here is the method: as §1, §2, §3
Experiment [15] relates to Bacteroides fragilis ATCC 25285. The experiment can be described thus: MIC by broth microdilution. Format: cell-based. Here is the method:
as §1, §2, §3

Experiment [16] deals with Pseudomonas aeruginosa ATCC 27853. The experiment can be described thus: MIC by broth microdilution. Type of experiment: cell-based. Here is the method: as §1, §2, §3
Experiment [17] has as its system Enterococcus faecalis ATCC 29212. The experiment can be described thus: MIC by broth microdilution. Type of experiment: cell-based. As to the method:
as §1, §2, §3

Experiment [18] relates to Staphylococcus aureus ATCC 29213. The experiment can be described thus: MIC by broth microdilution. Type of experiment: cell-based. As to the method: as §1, §2, §3
The test system of experiment [19] is Staphylococcus epidermidis ATCC 12228. The experiment can be described thus: MIC by broth microdilution. Type of experiment: cell-based. As to the method: as §1, §2, §3
In experiment [20] the test system is Staphylococcus aureus ATCC 43300. The experiment can be described thus: MIC by broth microdilution. Format: cell-based. As to the method: as §1, §2, §3
Experiment [21] deals with Bacillus subtilis ATCC 6637. The experiment can be described thus: MIC by broth microdilution. Format: cell-based. Here is the method: as §1, §2, §3
The next experiment deals with T1, ovine COX-1 (Ovis aries, UniProt P05979).
T1 construct: purchased Cayman Chemicals
T1 sequence (P05979 25-600): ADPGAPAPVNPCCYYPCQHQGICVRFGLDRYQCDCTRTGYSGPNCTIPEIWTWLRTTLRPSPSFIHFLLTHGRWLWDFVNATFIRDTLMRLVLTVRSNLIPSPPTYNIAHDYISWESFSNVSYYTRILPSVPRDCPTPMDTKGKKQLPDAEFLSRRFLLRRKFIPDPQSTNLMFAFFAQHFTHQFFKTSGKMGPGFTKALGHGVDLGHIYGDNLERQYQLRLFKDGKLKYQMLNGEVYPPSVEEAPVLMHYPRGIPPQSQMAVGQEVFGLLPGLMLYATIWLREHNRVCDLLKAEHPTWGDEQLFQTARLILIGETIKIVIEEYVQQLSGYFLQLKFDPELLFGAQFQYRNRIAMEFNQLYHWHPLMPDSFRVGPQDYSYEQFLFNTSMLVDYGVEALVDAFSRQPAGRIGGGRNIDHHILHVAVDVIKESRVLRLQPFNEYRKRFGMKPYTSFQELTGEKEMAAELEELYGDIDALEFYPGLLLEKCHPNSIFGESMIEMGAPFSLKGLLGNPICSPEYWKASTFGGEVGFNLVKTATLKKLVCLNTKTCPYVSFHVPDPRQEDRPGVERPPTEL
The experiment can be described thus: COX (ovine/human) Inhibitor Screening Assay, COX-1. Format: biochemical. As to the method:
The ability of the obtained complexes to inhibit cyclooxygenase activity was measured using a COX (ovine/human) Inhibitor Screening Assay Kit (Cayman Chemicals, MI, USA) with ovine COX-1 and human recombinant COX-2. The amount of prostaglandin, dependent on the COX activity, after exposure to the tested complexes was calculated from the standard curve. […] The selectivity indices (SIs) were calculated according to the formula COX-1 IC50/COX-2 IC50.

`CC(C)Cc1ccc(C(C)C(=O)O)cc1` (racemic) [IBU, (RS)-2-(4-(2-methylpropyl)phenyl)propanoic acid, reference compound]: the MIC (usually the lowest concentration found to suppress growth) in [1] (2.5–160 µg mL^−1, read-out: MIC) was more than 200 µg/mL.

Regarding `CC(C)Cc1ccc(C(C)C(=O)[O][Ag])cc1.Cn1c(=O)c2c(ncn2C)n(C)c1=O` (centres unmarked) [Ag-IBU-CAF], the MIC in experiment [1] (2.5–160 µg mL^−1) was not above 20 µg/mL; in experiment [12], 5 µg/mL; in experiment [13] it was 5 µg/mL; in experiment [14], 5 µg/mL; in experiment [15] it was 20 µg/mL; in experiment [16], 10 µg/mL. Besides, the MIC in experiment [17] came to 5 µg/mL; in experiment [18] it was 5 µg/mL; in experiment [19], 10 µg/mL; in experiment [20], 10 µg/mL; in [21] it was 10 µg/mL. Moreover, the 24h-IC50 with CCD-18Co cells worked out at 33.35 µg/mL. The “Inhibition Halo” value is listed as 15 mm in experiment [2]; 17 mm in [3]; 16 mm in [4]; 10 mm in experiment [5]; 15 mm in [6]; 16 mm in experiment [7]. For the same molecule, the “Inhibition Halo” value in [8] is 12 mm; in experiment [9], 11 mm; in experiment [10] it was 15 mm; in experiment [11], 13 mm. For the same molecule, the “IC50 COX-1” value against ovine COX-1 worked out at 62.5 µg/mL.

Turning to `CC(C)Cc1ccc(C(C)C(=O)[O][Ag])cc1` (centres unmarked) [Ag-IBU], the MIC is not above 20 µg/mL in [1] (2.5–160 µg mL^−1); 10 µg/mL in experiment [12]; 10 µg/mL in experiment [13]; 10 µg/mL in [14]; 20 µg/mL in experiment [15]; 10 µg/mL in [16]. The MIC in experiment [17] came out at 10 µg/mL; in experiment [18], 5 µg/mL; in experiment [19], 20 µg/mL; in experiment [20] it was 20 µg/mL; in [21] it was 10 µg/mL. This molecule yielded a 24h-IC50 in the experiment on CCD-18Co cells of 25.10 µg/mL. Also, the “Inhibition Halo” value worked out at 14 mm in [2]; 9 mm in experiment [3]; 14 mm in [4]; 7 mm in [5]; 10 mm in experiment [6]; 14 mm in experiment [7]. For the same molecule, the “Inhibition Halo” value in experiment [8] was determined as 7 mm; in [9], 10 mm; in experiment [10], 13 mm; in experiment [11], 11 mm. Also, the “IC50 COX-1” value on ovine COX-1 turned out to be 64.6 µg/mL.
